Experimental data as given in US7102000B2, “Heterocyclic amide derivatives for the treatment of diabetes and other diseases” (Incyte San Diego Inc., priority 2002, dated 2006).

Columns and labels:
KKA^y mice = test: Oral treatment of type 2 diabetes in KKA^y mice (serum glucose, triglyceride, cholesterol); type: in vivo, mouse; conditions: KKA^y mice, oral once daily, vs control mice, FIGS. 2a–d
Source text: The procedure for this in-vivo assay for anti-diabetes activity was described in detail by Iwatsuka, et al. (1970 General Survey of Diabetic Features of Yellow KK Mice. Endocrinol. Japon. 17: 23–35, incorporated herein in its entirety by reference).
Experimental Procedures: Six to eight week-old male KKA^y mice (obtained from Jackson Labs of Bar Harbord, Me.) were housed in a fixed 12–12-hr artificial light-dark cycle, and maintained on a standard rodent diet provided ad libitum. Animals were allowed two days to acclimate in this experimental environment prior to the initiation of the study.
Prior to initiation of treatment with the compounds of the invention, the animals were bled from the tail vein (100–200 μL of whole blood) and serum levels of glucose and triglycerides were measured in duplicate (Trinder kits; Sigma, St. Louis, Mo.). Based on these initial measures, animals were sorted into groups with approximately the same average serum glucose levels. Once sorted, the animals were housed one per cage and provided rodent diet ad libitum. Unless otherwise indicated, compounds were suspended in sesame oil, and administered by oral gavage once daily to animals in a volume of 3 ml/kg/dose.
Treatment Group A (n=5/group): (See Results in FIG. 2a) • 1) KKA^y vehicle control (sesame oil) • 2) Compound 1 (3 mg/kg) • 3) Compound 1 (10 mg/kg) • 4) Compound 2 (3 mg/kg) • 5) Compound 2 (10 mg/kg)
Treatment Group B (n=6/group): (See Results in FIG. 2b) • 1) KKA^y vehicle control (sesame oil) • 2) Compound 11 (15 mg/kg)
Treatment Group C (n=6/group): (See Results in FIG. 2c) • 1) KKA^y vehicle control (sesame oil) • 2) Compound 13 (15 mg/kg)
Treatment Group D (n=6/group): (See Results in FIG. 2d) • 1) KKA^y vehicle control (CMC) • 2) Compound 25 (3 mg/kg, CMC) Compound 25 was suspended in a solution of carboxymethyl cellulose (CMC; 1% carboxy methyl cellulose in H2O, with 10% polyethelene glycol 400), and administered to animals in a volume of 5 ml/kg/dose.
Treatment Group E (n=5/group): (See Results in FIG. 2e) • 1) KKA^y vehicle control (10% HPβCD) • 2) Compound 25 (1 mg/kg) • 3) Compound 25 (3 mg/kg) • 4) Compound 25 (10 mg/kg) Compound 25 was dissolved in a 10% hydroxy propyl beta cyclodextrin solution, and administered to animals in a volume of 10 ml/kg/dose.
Serum glucose, triglyceride and/or cholesterol levels were measured in duplicate. The blood is kept at room temperature to allow coagulation, after which the serum is separated and assayed for glucose, triglyceride and/or cholesterol levels. As shown in FIGS. 2a–2d all of the compounds tested reduced serum glucose and triglyceride levels, some with doses as low as 3 mg/kg when administered once a day.

[1] = test system: THP-1 cells differentiated into macrophages; test: Cholesterol efflux assay from macrophage foam cells; type: cell-based; conditions: 1 μM, 24 hr, with 10 μg/ml ApoA-I, compared to non treated cells, FIG. 4
Protocol: Cholesterol efflux from macrophage foam cells was assayed as described by Sparrow. et al, J. Biol. Chem.,2002, 277, 10021–10027, which is encorporated herein in its entirety by this reference. THP-1 cells obtained from ATCC (Manassas, VI), were cultured in RPMI medium (Sigma, St-Louis, Mo.), containing 10% fetal calf serum (Sigma, St-Louis, Mo.), 0.05 μM 2-mercaptoethanol, 1 mM sodium pyruvate, 2 mM L-glutamine, 100 units/ml penicillin, […] streptomycin and 0.25 μg/ml amphotericin B obtained from Sigma (St-Louis, Mo.). The THP-1 cells were differentiated into macrophages in 24 well tissue culture dishes at a density of 0.5 million cells/well by incubation in the same medium plus 100 nM tetradecanoyl phorbol acetate (Sigma, St-Louis, Mo.), for 3 days.
After differentiation into macrophages, the cells were tested for cholesterol efflux as induced by compound 2 of the invention. Cells were labeled by incubation for 24 hr in fresh growth medium containing [3 H]-cholesterol (10 μCi/ml) (PerkinElmer, Boston, Mass.), and 50 μg/ml acetylated-LDL (Frederick, Md.) and 1% Fetal bovine serum (Sigma, St-Louis, Mo.). […] Media were briefly centrifuged to remove non-adherent cells, and then aliquots of both the supernatant and the dissolved cells were counted by liquid scintillation spectrometry to determine radioactivity.
Cholesterol efflux is expressed as a percentage, calculated as […]

[2] = test system: diet-induced hypercholesterolemic Sprague Dawley rats; test: Diet-induced hypercholesterolemia in wild type Sprague Dawley rats (total, HDL, LDL cholesterol); type: in vivo, rat; conditions: Sprague Dawley rats on atherogenic diet, oral once daily, day 5, FIGS. 5a–c
Source text: Experimental Procedure: Six week-old male Sprague Dawley rats (obtained from Harlan of San Diego, Calif.) were housed in a fixed 12—12-hr artificial light-dark cycle, and maintained on a high cholesterol atherogenic diet (Paigen's Diet, obtained from Research Diet Inc. of New Brounswick, N.J.) was provided ad libitum. Animals were allowed six days to acclimate in this experimental environment prior to the initiation of the study.
Prior to initiation of treatment, the animals were bled from the tail vein (100–200 μL of whole blood) and serum levels of cholesterol were measured in duplicate (Cholesterol Infinity kits; Sigma, St. Louis, Mo.). Based on these initial measures, animals were sorted into groups with approximately the same average total cholesterol levels. Once sorted, the animals were housed three per cage and maintained on Paigen's diet ad libitum. All compounds to be tested were suspended in sesame oil and administered in a final volume of 3 ml/kg. Drug is administered by oral gavage once daily at the beginning of the artificial light cycle. To obtain a base line for lipid measurement, a control group maintained on standart rodent diet is included (lean control).
Treatment Group A (n=6/group): (See Results in FIG. 5a) • 1) Lean control (Sesame Oil) • 2) Control • 3) Compound 2 (0.3 mg/kg) • 4) Compound 2 (1 mg/kg) • 5) Compound 2 (3 mg/kg)
Treatment Group B (n=6/group): (See Results in FIG. 5b) • 1) Lean control (Sesame Oil) • 2) Control • 3) Compound 6 (3 mg/kg)
Treatment Group C (n=6/group): (See Results in FIG. 5c) • 1) Lean control (10% HPβCD) • 2) Control • 3) Compound 25 (1 mg/kg) • 4) Compound 25 (3 mg/kg) • 5) Compound 25 (10 mg/kg) • 6) Compound 25 (15 mg/kg) • The compounds were dissolved in a 10% hydroxy propyl beta cyclodextrin solution, and administered to animals in a volume of 10 ml/kg/dose.
To monitor the effect of the tested compounds, animals were bled from the tail vein at the end of the dark cycle on days 0 (for sorting) and day 5 of the treatment period. Fed serum cholesterol levels were measured in duplicate. The blood is kept at room temperature to allow coagulation, after which the serum is separated and assayed for total cholesterol (Infinity reagent, Sigma), HDL cholesterol (using HDL precipitating reagent and infinity reagent, Sigma) and LDL cholesterol (EZLDL kit, Sigma). As shown in FIGS. 5a–c, all compounds tested show significant reduction in total and LDL cholesterol levels and a significant increase in HDL cholesterol levels compared to high fat fed control animals.

[3] = test system: Mouse pre-adipocyte 3T3-L1 cells; test: Differentiation of 3T3-L1 pre-adipocytes in an in vitro assay (lipid content); type: cell-based; conditions: 0.1 μM, 7 days; taken as reference
Protocol: The compounds of the invention have been screened in an in-vitro adipocyte differentiation assay, as described in Example 26. Mouse pre-adipocyte 3T3-L1 cells were treated with compounds at concentrations less than or equal to 10^−6 M for 7 days.
The compounds can be considered active for adipocyte differentiation if the lipid accumulation induced is at least about 20%, or at least about 40% of the lipid accumulation induced by 5-[3-(3,5,5,8,8-Pentamethyl-5,6,7,8-tetrahydro-naphthalen-2-yl)-4-trifluoromethoxy-benzylidene]-thiazolidine-2,4-dione when it is applied to control cultures of mouse preadipocyte 3T3-L1 cells at a concentration of about 1×10^−7 M.
The following protocol was used to determine adipocyte differentiation activity of the compounds of the invention: Mouse pre-adipocyte 3T3-L1 cells obtained from ATCC (American Tissue Culture Collection, MD) were initially grown in DME Dulbecco's modified Eagle's medium containing 4500 mg/L glucose; 4 mM L-glutamine; 10 U/ml Pen-G; 10 mcg/ml Streptomycin and 10% Bovine Calf Serum (CS) at 37° C. and 10% CO2. Cells were plated in 96 well plates at a density of approximately 3,000 cells/well and grown to confluence (when cells use 100% of the available space on the well) in the same medium. […] The cellular lysates were analyzed for their lipid content using the Triglyceride-GPO Trinder reagent from Sigma.

[4] = Oral bioavailability, single dose pharmacokinetic study in rats (plasma concentration by HPLC); type: in vivo, Sprague Dawley rats; conditions: rat, single oral dose 10 mg/kg in 10% HPβCD, 0.5–26 hours, FIG. 7
Source text: Oral bioavailability is an important pharmaceutical characteristic for a compound to advance through drug development. A basic assessment of the oral bioavailability of a compound can be done in a single dose pharmacokinetic study in wild type rats.
Six to eight week-old male Sprague Dawley rats (Harlan) were housed in a fixed 12–12- hr artificial light-dark cycle, and maintained on a standard rodent diet provided ad libitum. Animals were allowed two days to acclimate in this experimental environment prior to the initiation of the study. Compounds 24 and 25 were dissolved in a 10% hydroxypropyl beta cyclodextrin solution and administered by oral gavage in a final dose of 10 mg/kg in a volume of 5 ml/kg. Treatment groups were divided as follows:
Treatment groups(n=3/group): • 1) Compound 24 (10 mg/kg) • 2) Compound 25 (10 mg/kg)
Each animal received a single treatment, after which, the animal was bled from the tail vein at the following time points: 0.5, 1, 2, 4, 6, 9, 12, and 26 hours after treatment. To measure the concentration of each compound in plasma, blood samples were collected in heparin-coated tubes, and the plasma was isolated and analyzed by HPLC.

[5] = test system: Mouse pre-adipocyte 3T3-L1 cells; conditions: stated as previously shown; cited from earlier work

Structure (SMILES) | serum glucose level (KKA^y mice) | serum triglyceride level (KKA^y mice) | cholesterol efflux [1] | HDL cholesterol [2] | LDL cholesterol [2] | total cholesterol [2] | differentiation of 3T3-L1 cells (lipid content), standard for differentiation activity [3] | concentration of compound in plasma [4] | inducer of adipocyte differentiation [5]
CCN1C(=O)CC(C)(C)c2cc(C)c(-c3cc(/C=C4\SC(=O)NC4=O)ccc3OC(F)(F)F)cc21 [Compound 2, 5-[3-(1-Ethyl-4,4,6-trimethyl-2-oxo-1,2,3,4-tetrahydro-quinolin-7-yl)-4-trifluoromethoxy-benzylidene]-thiazolidine-2,4-dione] | decrease | decrease | increases | increasing | decrease | decrease |  |  | 
Cc1cc2c(cc1-c1cc(/C=C3\SC(=O)NC3=O)ccc1OC(F)(F)F)C(C)(C)CCC2(C)C [Compound 24, 5-[3-(3,5,5,8,8-Pentamethyl-5,6,7,8-tetrahydro-naphthalen-2-yl)-4-trifluoromethoxy-benzylidene]-thiazolidine-2,4-dione] |  |  |  |  |  |  | 100% | only detected as being present at near the limit of detection | potent inducer of adipocyte differentiation
